Laboratory results: US10668028B2, “Methods and use of inducing apoptosis in cancer cells” (Berg LLC, priority 2008, dated 2020)

Assays:
[1] = system: human melanoma tumors; experiment: histopathology analysis of human melanoma (Skmel-28) tumors induced in nude athymic mice; assay type: in vivo; conditions: topical application for 30 days, H & E or S-100 stain
Method: Skmel-28 cells were grown in 5% serum supplemented DMEM/F12 medium to 80% confluency. The cells were trypsinized and pelleted using a centrifuge. The pellets were then resuspended in cold PBS. The subjects for this study were nude athymia mice. Each subject received two injections of the cell suspension on the dorsal region of the mouse. After a visual assessment of the establishment of a tumor, treatment with a topical application would commence. After 30 days of treatment, the tumors were excised from the mice and placed in formalin. Each tumor sample was embedded in paraffin and sliced using a microtome. The slides underwent an H & E or S-100 stain. These samples were than analyzed by a pathologist to assess the vascular integrity of the tumor.

[2] = system: Bcl-2 protein; conditions: melanoma; cited from earlier work

Structure (SMILES): COC1=C(OC)C(=O)C(C/C=C(\C)CC/C=C(\C)CC/C=C(\C)CC/C=C(\C)CC/C=C(\C)CC/C=C(\C)CC/C=C(\C)CC/C=C(\C)CC/C=C(\C)CCC=C(C)C)=C(C)C1=O [CoQ10, 2,3-dimethoxy-5-methyl-6-decaprenyl-1,4-benzoquinone]
- tumor pathology / vascular integrity of the tumor [1]: disruption in tumor vasculature
- Bcl-2 protein level [2]: downregulation of the Bcl-2 protein
